How the values were obtained:
Test in all cases: Kinome-wide inhibition profiling
Type in all cases: biochemical
[1] = biological target: T1, SIK (Homo sapiens, UniProt P57059)
T1 construct: purchased Reaction Biology Corp
Experimental: (§1) In vitro CDK12/cyclinK assays for all compounds and in vitro kinome-wide inhibition profiling of 30d at 10 μM were performed by a CRO company (Reaction Biology Corp., San Diego, CA, USA).

[2] = biological target: T2, CAMK4 (Homo sapiens, UniProt Q16566)
T2 construct: purchased Reaction Biology Corp
Experimental: as §1

[3] = biological target: T3, ERN1 (Homo sapiens, UniProt O75460)
T3 construct: purchased Reaction Biology Corp
Experimental: as §1

[4] = biological target: T4, MAP3K8 (Homo sapiens, UniProt P41279)
T4 construct: purchased Reaction Biology Corp
Experimental: as §1

[5] = biological target: T5, BRSK1 (Homo sapiens, UniProt Q8TDC3)
T5 construct: purchased Reaction Biology Corp
Experimental: as §1

[6] = biological target: T6, JAK3 (Homo sapiens, UniProt P52333)
T6 construct: purchased Reaction Biology Corp
Experimental: as §1

[7] = biological target: T7, ULK2 (Homo sapiens, UniProt Q8IYT8)
T7 construct: purchased Reaction Biology Corp
Experimental: as §1

[8] = biological target: T8, DMPK (Homo sapiens, UniProt Q09013)
T8 construct: purchased Reaction Biology Corp
Experimental: as §1

[9] = biological target: T9, AKT2 (Homo sapiens, UniProt P31751)
T9 construct: purchased Reaction Biology Corp
Experimental: as §1

[10] = biological target: T10, FMS (Homo sapiens, UniProt P07333)
T10 construct: purchased Reaction Biology Corp
Experimental: as §1

[11] = biological target: T11, ACK1 (Homo sapiens, UniProt Q07912)
T11 construct: purchased Reaction Biology Corp
Experimental: as §1

[12] = biological target: T12, SGK3 (Homo sapiens, UniProt Q96BR1)
T12 construct: purchased Reaction Biology Corp
Experimental: as §1

[13] = biological target: T13, TTBK1 (Homo sapiens, UniProt Q5TCY1)
T13 construct: purchased Reaction Biology Corp
Experimental: as §1

[14] = biological target: T14, ERBB2 (Homo sapiens, UniProt P04626)
T14 construct: purchased Reaction Biology Corp
Experimental: as §1

[15] = biological target: T15, EPHA3 (Homo sapiens, UniProt P29320)
T15 construct: purchased Reaction Biology Corp
Experimental: as §1

[16] = biological target: T16, MARK4 (Homo sapiens, UniProt Q96L34)
T16 construct: purchased Reaction Biology Corp
Experimental: as §1

[17] = biological target: T17, RSK2 (Homo sapiens, UniProt P51812)
T17 construct: purchased Reaction Biology Corp
Experimental: as §1

[18] = biological target: T18, RIPK2 (Homo sapiens, UniProt O43353)
T18 construct: purchased Reaction Biology Corp
Experimental: as §1

[19] = biological target: T19, MEK5 (Homo sapiens, UniProt Q13163)
T19 construct: purchased Reaction Biology Corp
Experimental: as §1

[20] = biological target: T20, PAK4 (Homo sapiens, UniProt O96013)
T20 construct: purchased Reaction Biology Corp
Experimental: as §1

[21] = biological target: T21, P38-delta (Homo sapiens, UniProt O15264)
T21 construct: purchased Reaction Biology Corp
Experimental: as §1

[22] = biological target: T22, DDR1 (Homo sapiens, UniProt Q08345)
T22 construct: purchased Reaction Biology Corp
Experimental: as §1

[23] = biological target: T23, CDK7/cyclinH (Homo sapiens, UniProt P50613)
T23 construct: purchased Reaction Biology Corp
Experimental: as §1

[24] = biological target: T24, WNK3 (Homo sapiens, UniProt Q9BYP7)
T24 construct: purchased Reaction Biology Corp
Experimental: as §1

[25] = biological target: T25, PRKCD (Homo sapiens, UniProt Q05655)
T25 construct: purchased Reaction Biology Corp
Experimental: as §1

[26] = biological target: T26, LCK (Homo sapiens, UniProt P06239)
T26 construct: purchased Reaction Biology Corp
Experimental: as §1

[27] = biological target: T27, OSR1 (Homo sapiens, UniProt O95747)
T27 construct: purchased Reaction Biology Corp
Experimental: as §1

[28] = biological target: T28, INSR (Homo sapiens, UniProt P06213)
T28 construct: purchased Reaction Biology Corp
Experimental: as §1

[29] = biological target: T29, CSNK2A1 (Homo sapiens, UniProt P68400)
T29 construct: purchased Reaction Biology Corp
Experimental: as §1

[30] = biological target: T30, MAP4K3 (Homo sapiens, UniProt Q8IVH8)
T30 construct: purchased Reaction Biology Corp
Experimental: as §1

[31] = biological target: T31, DAPK2 (Homo sapiens, UniProt Q9UIK4)
T31 construct: purchased Reaction Biology Corp
Experimental: as §1

[32] = biological target: T32, YES (Homo sapiens, UniProt P07947)
T32 construct: purchased Reaction Biology Corp
Experimental: as §1

[33] = biological target: T33, DCAMKL1 (Homo sapiens, UniProt O15075)
T33 construct: purchased Reaction Biology Corp
Experimental: as §1

[34] = biological target: T34, CDK6/cyclinD1 (Homo sapiens, UniProt Q00534)
T34 construct: purchased Reaction Biology Corp
Experimental: as §1

[35] = biological target: T35, TLK2 (Homo sapiens, UniProt Q86UE8)
T35 construct: purchased Reaction Biology Corp
Experimental: as §1

[36] = biological target: T36, VRK2 (Homo sapiens, UniProt Q86Y07)
T36 construct: purchased Reaction Biology Corp
Experimental: as §1

[37] = biological target: T37, DYRK4 (Homo sapiens, UniProt Q9NR20)
T37 construct: purchased Reaction Biology Corp
Experimental: as §1

[38] = biological target: T38, PRKCG (Homo sapiens, UniProt P05129)
T38 construct: purchased Reaction Biology Corp
Experimental: as §1

[39] = biological target: T39, BRSK2 (Homo sapiens, UniProt Q8IWQ3)
T39 construct: purchased Reaction Biology Corp
Experimental: as §1

[40] = biological target: T40, PAK5 (Homo sapiens, UniProt Q9P286)
T40 construct: purchased Reaction Biology Corp
Experimental: as §1

[41] = biological target: T41, MYLK4 (Homo sapiens, UniProt Q86YV6)
T41 construct: purchased Reaction Biology Corp
Experimental: as §1

[42] = biological target: T42, JNK1 (Homo sapiens, UniProt P45983)
T42 construct: purchased Reaction Biology Corp
Experimental: as §1

[43] = biological target: T43, MAK (Homo sapiens, UniProt P20794)
T43 construct: purchased Reaction Biology Corp
Experimental: as §1

T43 sequence (P20794 whole entry): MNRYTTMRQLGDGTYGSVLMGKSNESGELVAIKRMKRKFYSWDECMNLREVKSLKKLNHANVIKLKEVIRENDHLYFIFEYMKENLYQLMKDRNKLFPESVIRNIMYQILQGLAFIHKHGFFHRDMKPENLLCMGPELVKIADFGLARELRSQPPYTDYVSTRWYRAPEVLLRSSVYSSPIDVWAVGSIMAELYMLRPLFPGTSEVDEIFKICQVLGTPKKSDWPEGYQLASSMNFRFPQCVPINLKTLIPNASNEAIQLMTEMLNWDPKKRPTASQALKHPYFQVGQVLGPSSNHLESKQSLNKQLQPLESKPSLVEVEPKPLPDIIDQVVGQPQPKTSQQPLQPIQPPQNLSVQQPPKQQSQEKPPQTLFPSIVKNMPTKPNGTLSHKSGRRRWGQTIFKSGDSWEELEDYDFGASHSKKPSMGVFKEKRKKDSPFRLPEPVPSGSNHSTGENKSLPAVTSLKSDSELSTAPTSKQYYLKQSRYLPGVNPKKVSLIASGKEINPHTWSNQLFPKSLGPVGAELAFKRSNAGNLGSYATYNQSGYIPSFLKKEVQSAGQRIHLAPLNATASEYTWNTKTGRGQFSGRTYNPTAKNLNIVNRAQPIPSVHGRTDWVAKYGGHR
T41 sequence (Q86YV6 whole entry): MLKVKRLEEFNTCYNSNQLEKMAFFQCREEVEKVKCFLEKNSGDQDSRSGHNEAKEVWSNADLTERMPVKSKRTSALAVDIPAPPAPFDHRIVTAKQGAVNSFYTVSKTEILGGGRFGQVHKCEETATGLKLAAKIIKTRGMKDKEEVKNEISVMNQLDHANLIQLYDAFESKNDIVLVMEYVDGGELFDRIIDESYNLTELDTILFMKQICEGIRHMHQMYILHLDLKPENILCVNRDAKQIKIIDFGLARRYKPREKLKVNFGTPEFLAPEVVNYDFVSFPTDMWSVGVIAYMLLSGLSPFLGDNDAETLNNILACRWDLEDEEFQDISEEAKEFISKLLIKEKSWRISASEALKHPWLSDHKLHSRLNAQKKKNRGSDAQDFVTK
T23 sequence (P50613 whole entry): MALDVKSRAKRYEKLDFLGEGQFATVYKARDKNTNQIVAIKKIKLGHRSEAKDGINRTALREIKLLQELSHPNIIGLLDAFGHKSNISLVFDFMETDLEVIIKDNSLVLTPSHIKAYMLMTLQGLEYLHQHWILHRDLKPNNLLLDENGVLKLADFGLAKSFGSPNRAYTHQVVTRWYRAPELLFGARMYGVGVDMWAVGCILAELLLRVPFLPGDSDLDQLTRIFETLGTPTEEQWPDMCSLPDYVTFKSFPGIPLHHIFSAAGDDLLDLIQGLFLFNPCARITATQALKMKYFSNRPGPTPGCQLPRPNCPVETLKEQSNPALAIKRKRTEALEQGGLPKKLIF
T23 sequence (P51946 whole entry partner): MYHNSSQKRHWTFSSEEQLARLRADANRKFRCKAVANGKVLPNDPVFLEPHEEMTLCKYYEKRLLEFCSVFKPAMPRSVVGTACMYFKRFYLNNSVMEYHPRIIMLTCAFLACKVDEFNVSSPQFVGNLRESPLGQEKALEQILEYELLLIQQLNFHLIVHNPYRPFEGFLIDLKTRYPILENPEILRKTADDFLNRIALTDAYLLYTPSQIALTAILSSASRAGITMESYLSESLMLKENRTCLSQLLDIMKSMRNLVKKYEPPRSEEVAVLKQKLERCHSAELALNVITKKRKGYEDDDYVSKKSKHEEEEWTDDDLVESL
T23 sequence (P51948 whole entry partner): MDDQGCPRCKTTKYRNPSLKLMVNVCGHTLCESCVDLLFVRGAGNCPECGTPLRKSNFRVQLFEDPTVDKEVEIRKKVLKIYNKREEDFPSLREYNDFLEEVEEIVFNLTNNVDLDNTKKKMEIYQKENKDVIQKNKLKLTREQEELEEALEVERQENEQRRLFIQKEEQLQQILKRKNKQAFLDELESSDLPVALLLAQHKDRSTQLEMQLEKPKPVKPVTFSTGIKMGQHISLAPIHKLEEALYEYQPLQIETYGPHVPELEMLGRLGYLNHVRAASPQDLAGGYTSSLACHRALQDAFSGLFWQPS
T6 sequence (P52333 whole entry): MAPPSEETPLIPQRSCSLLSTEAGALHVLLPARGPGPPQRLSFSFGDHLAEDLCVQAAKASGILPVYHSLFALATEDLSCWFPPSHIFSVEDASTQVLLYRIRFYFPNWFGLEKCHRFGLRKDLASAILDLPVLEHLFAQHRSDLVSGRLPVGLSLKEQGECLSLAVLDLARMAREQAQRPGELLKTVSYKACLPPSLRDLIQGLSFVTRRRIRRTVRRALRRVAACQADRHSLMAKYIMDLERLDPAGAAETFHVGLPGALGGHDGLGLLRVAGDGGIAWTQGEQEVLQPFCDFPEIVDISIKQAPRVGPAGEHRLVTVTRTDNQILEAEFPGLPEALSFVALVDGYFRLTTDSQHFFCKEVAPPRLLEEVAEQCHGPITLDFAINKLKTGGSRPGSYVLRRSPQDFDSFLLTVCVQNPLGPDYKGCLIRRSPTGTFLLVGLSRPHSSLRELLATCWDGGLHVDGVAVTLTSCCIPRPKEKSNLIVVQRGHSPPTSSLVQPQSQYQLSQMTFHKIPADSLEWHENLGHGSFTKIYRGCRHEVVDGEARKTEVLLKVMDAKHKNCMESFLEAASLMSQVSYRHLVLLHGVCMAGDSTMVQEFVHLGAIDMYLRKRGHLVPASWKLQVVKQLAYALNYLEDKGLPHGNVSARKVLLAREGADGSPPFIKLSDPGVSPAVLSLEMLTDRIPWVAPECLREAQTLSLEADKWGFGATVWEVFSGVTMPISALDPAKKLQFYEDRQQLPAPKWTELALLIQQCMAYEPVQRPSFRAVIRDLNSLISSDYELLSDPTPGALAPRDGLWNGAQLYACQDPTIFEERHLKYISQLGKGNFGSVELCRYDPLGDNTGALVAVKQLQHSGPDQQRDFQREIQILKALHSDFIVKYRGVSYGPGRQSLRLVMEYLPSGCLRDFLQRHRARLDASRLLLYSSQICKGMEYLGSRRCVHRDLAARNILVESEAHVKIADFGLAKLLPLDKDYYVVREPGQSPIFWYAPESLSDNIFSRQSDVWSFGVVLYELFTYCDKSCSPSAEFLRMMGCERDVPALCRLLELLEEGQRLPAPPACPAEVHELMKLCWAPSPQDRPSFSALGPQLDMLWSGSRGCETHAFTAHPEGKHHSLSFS
T7 sequence (Q8IYT8 whole entry): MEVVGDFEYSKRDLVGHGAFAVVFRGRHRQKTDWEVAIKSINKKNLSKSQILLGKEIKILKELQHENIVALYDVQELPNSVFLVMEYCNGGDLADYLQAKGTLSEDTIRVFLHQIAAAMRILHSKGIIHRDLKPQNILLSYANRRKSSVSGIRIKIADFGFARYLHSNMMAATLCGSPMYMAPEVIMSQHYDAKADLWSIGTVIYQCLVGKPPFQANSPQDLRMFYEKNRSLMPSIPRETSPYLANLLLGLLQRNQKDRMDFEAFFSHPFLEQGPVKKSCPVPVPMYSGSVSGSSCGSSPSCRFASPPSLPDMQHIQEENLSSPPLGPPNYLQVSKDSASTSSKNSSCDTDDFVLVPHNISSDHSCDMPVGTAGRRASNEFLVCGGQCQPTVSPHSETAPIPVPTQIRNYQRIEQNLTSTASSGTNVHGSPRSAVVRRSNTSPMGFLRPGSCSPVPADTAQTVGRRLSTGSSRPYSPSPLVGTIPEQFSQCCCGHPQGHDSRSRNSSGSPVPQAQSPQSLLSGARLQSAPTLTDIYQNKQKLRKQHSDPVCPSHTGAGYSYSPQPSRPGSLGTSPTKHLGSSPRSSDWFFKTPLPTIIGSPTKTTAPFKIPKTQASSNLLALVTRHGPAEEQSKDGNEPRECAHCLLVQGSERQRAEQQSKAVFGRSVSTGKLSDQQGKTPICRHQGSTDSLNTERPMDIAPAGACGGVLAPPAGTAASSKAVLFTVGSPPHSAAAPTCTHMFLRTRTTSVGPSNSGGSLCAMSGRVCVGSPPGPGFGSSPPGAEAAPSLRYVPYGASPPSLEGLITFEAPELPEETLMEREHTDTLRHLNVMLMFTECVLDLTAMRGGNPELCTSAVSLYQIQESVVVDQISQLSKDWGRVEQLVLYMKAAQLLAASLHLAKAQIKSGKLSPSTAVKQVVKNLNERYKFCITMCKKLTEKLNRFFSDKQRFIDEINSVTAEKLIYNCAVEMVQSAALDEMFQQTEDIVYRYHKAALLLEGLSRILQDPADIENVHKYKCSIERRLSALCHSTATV
T33 sequence (O15075 whole entry): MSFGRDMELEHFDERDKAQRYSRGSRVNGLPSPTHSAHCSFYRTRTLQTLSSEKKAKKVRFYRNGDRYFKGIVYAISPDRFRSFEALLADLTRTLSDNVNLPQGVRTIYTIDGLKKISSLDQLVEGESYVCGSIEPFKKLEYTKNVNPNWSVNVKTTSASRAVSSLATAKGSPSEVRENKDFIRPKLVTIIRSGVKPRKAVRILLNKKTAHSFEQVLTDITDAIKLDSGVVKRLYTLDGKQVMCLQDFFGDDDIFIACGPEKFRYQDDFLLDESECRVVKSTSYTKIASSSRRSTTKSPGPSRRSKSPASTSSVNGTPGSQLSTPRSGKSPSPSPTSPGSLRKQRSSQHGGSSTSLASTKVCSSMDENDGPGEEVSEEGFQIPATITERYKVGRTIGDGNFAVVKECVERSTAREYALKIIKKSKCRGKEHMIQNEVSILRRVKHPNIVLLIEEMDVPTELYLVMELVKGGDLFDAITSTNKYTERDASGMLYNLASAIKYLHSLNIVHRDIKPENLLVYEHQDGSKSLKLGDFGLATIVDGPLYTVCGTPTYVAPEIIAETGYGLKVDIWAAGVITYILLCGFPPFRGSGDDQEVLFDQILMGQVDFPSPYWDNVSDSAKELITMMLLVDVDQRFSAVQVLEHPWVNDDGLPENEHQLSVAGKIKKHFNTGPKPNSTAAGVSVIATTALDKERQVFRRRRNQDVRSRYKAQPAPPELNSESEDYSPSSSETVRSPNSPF

CCn1cnc2c(NCc3ccc(-c4ccccn4)nc3)nc(-c3ccc(N)nc3)nc21 [Compound 30d, N-([2,2′-Bipyridin]-5-ylmethyl)-2-(6-aminopyridin-3-yl)-9-ethyl-9H-purin-6-amine]
remaining activity at 10 µM [1]: 56.3%
remaining activity at 10 µM [2]: 95.2%
remaining activity at 10 µM [3]: 50.8%
remaining activity at 10 µM [4]: 102%
remaining activity at 10 µM [5]: 92.8%
remaining activity at 10 µM [6]: 99.7%
remaining activity at 10 µM [7]: 87.3%
remaining activity at 10 µM [8]: 90.4%
remaining activity at 10 µM [9]: 100%
remaining activity at 10 µM [10]: 35.4%
remaining activity at 10 µM [11]: 13.7%
remaining activity at 10 µM [12]: 92.6%
remaining activity at 10 µM [13]: 108%
remaining activity at 10 µM [14]: 74.2%
remaining activity at 10 µM [15]: 7.8%
remaining activity at 10 µM [16]: 66.9%
remaining activity at 10 µM [17]: 69.4%
remaining activity at 10 µM [18]: 66.1%
remaining activity at 10 µM [19]: 84.1%
remaining activity at 10 µM [20]: 12.9%
remaining activity at 10 µM [21]: 102%
remaining activity at 10 µM [22]: 50.2%
inhibition at 10 µM [23]: > 95%
remaining activity at 10 µM [23]: 3.8%
remaining activity at 10 µM [24]: 74.5%
remaining activity at 10 µM [25]: 95.2%
remaining activity at 10 µM [26]: 83.6%
remaining activity at 10 µM [27]: 50.8%
remaining activity at 10 µM [28]: 65.1%
remaining activity at 10 µM [29]: 84.2%
remaining activity at 10 µM [30]: 49.6%
remaining activity at 10 µM [31]: 85.7%
remaining activity at 10 µM [32]: 20.6%
remaining activity at 10 µM [33]: 72.6%
remaining activity at 10 µM [34]: 24.2%
remaining activity at 10 µM [35]: 72.2%
remaining activity at 10 µM [36]: 96.6%
remaining activity at 10 µM [37]: 89.3%
remaining activity at 10 µM [38]: 49.6%
remaining activity at 10 µM [39]: 97.5%
remaining activity at 10 µM [40]: 7.6%
inhibition at 10 µM [41]: > 95%
remaining activity at 10 µM [41]: 4.1%
remaining activity at 10 µM [42]: 41.6%
inhibition at 10 µM [43]: > 95%
remaining activity at 10 µM [43]: 3.3%

Source: publication PMC9506414, “Novel 2,6,9-Trisubstituted Purines as Potent CDK Inhibitors Alleviating Trastuzumab-Resistance of HER2-Positive Breast Cancers” (Pharmaceuticals, 2022)
